Source: publication PMC11628833 (Acta Pharmaceutica Sinica. B, 2024)

What was measured:
Format in all cases: cell-based
[1] = target: T1, hTLR8 (Homo sapiens, UniProt Q9NR97); experiment: SEAP reporter assay in HEK-Blue hTLR8 cells
T1 sequence (Q9NR97 27-1041): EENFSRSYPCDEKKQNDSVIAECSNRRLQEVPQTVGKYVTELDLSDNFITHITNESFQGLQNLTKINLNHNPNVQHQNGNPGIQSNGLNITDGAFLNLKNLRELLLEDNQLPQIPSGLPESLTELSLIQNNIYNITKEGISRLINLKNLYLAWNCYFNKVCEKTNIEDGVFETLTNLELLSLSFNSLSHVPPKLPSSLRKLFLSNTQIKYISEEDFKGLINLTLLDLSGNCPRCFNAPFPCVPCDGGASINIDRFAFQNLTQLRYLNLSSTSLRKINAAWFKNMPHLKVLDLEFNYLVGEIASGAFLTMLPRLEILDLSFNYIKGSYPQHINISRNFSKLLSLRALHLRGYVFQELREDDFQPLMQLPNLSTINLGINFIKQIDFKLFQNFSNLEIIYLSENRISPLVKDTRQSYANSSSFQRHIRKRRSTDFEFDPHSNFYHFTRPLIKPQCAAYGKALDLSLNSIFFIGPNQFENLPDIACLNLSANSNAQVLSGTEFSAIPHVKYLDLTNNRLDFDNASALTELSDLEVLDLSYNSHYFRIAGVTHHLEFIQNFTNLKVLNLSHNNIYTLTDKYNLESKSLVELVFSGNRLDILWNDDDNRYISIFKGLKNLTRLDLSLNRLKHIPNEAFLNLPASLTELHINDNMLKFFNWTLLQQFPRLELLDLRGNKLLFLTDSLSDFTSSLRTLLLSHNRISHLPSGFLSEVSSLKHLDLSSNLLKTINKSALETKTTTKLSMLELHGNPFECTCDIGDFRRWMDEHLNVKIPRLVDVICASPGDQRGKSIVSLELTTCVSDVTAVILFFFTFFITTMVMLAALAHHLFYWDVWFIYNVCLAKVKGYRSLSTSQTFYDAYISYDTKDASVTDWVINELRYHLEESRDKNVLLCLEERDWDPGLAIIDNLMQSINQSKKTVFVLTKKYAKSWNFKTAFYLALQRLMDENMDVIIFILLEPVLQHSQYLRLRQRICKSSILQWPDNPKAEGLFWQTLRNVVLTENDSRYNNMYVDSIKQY

[2] = target: T2, TLR3 (Homo sapiens, UniProt O15455); experiment: Specificity test in HEK-Blue TLR-overexpressing cells, TLR3; settings: 5 μM S-1, HEK-Blue TLR cells, TLR-specific agonist
T2 sequence (O15455 24-904): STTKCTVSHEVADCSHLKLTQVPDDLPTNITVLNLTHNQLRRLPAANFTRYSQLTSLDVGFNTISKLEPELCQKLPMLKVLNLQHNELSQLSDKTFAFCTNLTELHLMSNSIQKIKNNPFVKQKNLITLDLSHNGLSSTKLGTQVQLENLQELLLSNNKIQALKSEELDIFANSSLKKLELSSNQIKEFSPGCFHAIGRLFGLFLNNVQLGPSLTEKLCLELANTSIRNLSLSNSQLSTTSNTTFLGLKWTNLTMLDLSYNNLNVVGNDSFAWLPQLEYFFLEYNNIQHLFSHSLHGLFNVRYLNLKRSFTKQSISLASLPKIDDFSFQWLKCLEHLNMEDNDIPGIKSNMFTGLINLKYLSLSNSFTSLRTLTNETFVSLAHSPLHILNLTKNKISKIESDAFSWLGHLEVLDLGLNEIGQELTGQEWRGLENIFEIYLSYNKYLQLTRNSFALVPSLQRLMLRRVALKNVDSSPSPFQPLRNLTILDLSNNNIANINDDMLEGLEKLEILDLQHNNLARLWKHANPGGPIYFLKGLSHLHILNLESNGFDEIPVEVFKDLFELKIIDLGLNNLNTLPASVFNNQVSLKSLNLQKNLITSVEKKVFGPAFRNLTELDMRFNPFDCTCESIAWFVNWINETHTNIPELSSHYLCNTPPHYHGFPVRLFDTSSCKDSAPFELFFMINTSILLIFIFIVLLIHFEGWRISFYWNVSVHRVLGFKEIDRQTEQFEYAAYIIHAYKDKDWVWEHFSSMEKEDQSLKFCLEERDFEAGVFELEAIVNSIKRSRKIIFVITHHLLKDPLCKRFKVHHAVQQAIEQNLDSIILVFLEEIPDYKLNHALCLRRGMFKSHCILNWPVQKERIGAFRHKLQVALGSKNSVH

[3] = target: TLR4 (Homo sapiens, UniProt O00206); experiment: Specificity test in HEK-Blue TLR-overexpressing cells, TLR4; settings: 5 μM S-1, HEK-Blue TLR cells, TLR-specific agonist
[4] = target: TLR5 (Homo sapiens, UniProt O60602); experiment: Specificity test in HEK-Blue TLR-overexpressing cells, TLR5; settings: 5 μM S-1, HEK-Blue TLR cells, TLR-specific agonist
[5] = target: T3, TLR9 (Homo sapiens, UniProt Q9NR96); experiment: Specificity test in HEK-Blue TLR-overexpressing cells, TLR9; settings: 5 μM S-1, HEK-Blue TLR cells, TLR-specific agonist
T3 sequence (Q9NR96 26-1032): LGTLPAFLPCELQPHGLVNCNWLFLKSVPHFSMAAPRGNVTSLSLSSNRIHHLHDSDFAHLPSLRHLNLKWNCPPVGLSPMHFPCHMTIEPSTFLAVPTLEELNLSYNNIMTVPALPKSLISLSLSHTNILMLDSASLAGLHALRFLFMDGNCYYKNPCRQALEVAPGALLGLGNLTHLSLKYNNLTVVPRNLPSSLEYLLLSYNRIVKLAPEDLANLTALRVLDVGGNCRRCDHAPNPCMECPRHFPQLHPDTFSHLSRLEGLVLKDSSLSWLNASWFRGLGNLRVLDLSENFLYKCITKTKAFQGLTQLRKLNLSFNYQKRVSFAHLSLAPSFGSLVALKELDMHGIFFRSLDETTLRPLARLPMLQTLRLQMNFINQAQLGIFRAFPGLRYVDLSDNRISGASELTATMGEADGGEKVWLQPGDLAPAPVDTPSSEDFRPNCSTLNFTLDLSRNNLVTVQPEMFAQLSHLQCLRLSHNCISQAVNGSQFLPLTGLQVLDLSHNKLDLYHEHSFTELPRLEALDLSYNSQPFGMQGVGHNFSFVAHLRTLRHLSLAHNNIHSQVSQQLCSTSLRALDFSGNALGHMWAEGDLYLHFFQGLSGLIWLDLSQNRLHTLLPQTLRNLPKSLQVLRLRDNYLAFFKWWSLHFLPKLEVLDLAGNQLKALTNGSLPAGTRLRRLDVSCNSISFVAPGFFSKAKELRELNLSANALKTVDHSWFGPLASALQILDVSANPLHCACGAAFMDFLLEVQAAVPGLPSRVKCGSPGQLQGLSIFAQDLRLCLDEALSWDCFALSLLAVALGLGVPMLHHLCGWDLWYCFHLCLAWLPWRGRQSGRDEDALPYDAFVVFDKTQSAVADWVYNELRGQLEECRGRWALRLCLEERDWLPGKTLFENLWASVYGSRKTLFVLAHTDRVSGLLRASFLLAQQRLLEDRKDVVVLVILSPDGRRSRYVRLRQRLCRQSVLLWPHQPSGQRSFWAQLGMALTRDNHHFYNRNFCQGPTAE

TLR5, sequence (O60602 21-858): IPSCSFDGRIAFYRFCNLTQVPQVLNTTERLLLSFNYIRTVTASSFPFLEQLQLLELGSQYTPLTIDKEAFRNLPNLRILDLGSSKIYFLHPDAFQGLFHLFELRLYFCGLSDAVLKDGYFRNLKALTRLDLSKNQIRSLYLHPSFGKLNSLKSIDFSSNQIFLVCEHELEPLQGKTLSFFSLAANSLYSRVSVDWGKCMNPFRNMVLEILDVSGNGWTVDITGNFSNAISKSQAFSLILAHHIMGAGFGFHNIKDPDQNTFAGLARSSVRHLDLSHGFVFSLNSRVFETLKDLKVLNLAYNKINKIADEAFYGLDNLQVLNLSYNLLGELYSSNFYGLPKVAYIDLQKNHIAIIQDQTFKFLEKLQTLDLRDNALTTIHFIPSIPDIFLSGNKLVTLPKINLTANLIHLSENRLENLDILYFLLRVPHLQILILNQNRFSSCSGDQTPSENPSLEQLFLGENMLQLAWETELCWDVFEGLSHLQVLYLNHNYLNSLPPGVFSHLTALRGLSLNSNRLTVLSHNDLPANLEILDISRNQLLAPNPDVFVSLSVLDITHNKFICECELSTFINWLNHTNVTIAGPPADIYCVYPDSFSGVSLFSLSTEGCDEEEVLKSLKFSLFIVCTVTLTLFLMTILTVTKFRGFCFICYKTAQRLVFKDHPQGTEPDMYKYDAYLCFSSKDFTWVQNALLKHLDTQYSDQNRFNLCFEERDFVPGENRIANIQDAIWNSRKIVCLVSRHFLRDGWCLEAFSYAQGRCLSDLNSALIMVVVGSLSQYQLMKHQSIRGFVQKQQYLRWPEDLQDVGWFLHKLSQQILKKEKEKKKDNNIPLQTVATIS
TLR4, sequence (O00206 24-839): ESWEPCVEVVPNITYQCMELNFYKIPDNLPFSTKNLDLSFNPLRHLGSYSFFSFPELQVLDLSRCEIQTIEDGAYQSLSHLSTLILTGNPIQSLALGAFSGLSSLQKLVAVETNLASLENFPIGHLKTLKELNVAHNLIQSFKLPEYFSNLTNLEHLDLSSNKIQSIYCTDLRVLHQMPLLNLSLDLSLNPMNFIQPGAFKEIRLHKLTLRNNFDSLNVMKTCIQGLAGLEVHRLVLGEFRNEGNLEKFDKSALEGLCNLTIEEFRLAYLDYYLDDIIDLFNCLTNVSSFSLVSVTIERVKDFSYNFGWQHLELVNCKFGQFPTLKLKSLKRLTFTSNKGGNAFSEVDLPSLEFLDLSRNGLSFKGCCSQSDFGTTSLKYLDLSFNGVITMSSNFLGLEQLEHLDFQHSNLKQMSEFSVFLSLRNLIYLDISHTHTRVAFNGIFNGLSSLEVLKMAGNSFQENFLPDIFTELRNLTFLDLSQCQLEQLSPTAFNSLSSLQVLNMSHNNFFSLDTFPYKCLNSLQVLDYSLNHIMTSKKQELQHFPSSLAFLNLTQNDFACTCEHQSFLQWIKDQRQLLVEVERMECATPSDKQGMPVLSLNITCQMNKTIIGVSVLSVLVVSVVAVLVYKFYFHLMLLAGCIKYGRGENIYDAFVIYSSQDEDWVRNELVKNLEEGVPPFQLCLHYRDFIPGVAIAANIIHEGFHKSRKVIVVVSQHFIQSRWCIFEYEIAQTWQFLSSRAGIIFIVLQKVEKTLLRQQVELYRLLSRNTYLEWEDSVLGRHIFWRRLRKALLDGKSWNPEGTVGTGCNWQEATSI
TLR4, sequence (Q9Y6Y9 17-160 partner limits assumed): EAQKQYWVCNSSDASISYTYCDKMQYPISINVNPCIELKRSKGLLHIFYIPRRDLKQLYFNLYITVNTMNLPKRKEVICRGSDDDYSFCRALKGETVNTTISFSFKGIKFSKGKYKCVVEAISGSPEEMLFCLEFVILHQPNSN

IC50 [1]: 130 ± 30 nM
inhibition of TLR3 [2]: no obvious inhibition
inhibition of TLR4 [3]: no obvious inhibition
inhibition of TLR5 [4]: no obvious inhibition
inhibition of TLR9 [5]: no obvious inhibition
SMILES: O=C(c1ccc(Cl)cc1)N1CCN(c2ccc([N+](=O)[O-])c3ncccc23)CC1 [Compound S1]
